Test results from patent publication US20240383904A1, “HETEROCYCLIC COMPOUNDS” (Hoffmann-La Roche Inc., priority 2021, published 2024).

Target: T1, MAGL (Homo sapiens, UniProt Q99685)
T1 sequence (Q99685 1-303): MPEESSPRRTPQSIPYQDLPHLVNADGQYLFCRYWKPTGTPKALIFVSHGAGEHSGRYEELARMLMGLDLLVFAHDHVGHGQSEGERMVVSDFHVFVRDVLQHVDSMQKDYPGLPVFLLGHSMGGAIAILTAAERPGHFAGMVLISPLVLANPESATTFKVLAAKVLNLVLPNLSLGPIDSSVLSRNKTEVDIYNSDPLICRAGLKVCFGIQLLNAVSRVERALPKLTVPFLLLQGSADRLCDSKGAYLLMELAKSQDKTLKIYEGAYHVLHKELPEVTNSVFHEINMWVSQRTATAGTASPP
Assay: 2-AG assay: MAGL inhibitory activity by hydrolysis of 2-arachidonoylglycerol to arachidonic acid, followed by mass spectrometry
Type: biochemical
Details: 15 min preincubation, 30 min reaction at RT, 8 μM 2-arachidonoylglycerol

For O=C1COCC2(CN(C(=O)N3CC4(CCN(Cc5ccc(S(=O)(=O)C(F)(F)F)cc5)CC4)C3)C2)N1 [Example 83, 2-[7-(4-triflylbenzyl)-2,7-diazaspiro[3.5]nonane-2-carbonyl]-8-oxa-2,5-diazaspiro[3.5]nonan-6-one], which IC50 is on record?
Its IC50 is 24.2 nM.

With O=C1NC2(CO1)CN(C(=O)N1CC3(CCN(Cc4ccc(S(=O)(=O)C(F)(F)F)cc4)CC3)C1)C2 [Example 84, 2-[7-(4-triflylbenzyl)-2,7-diazaspiro[3.5]nonane-2-carbonyl]-7-oxa-2,5-diazaspiro[3.4]octan-6-one] as the compound, how does the IC50 read?
The IC50 was 0.99 nM.

For O=C1NC2(CO1)CN(C(=O)N1CC3(CN(Cc4ccc(S(=O)(=O)C(F)(F)F)cc4)C3)C1)C2 [Example 85, 2-[6-(4-triflylbenzyl)-2,6-diazaspiro[3.3]heptane-2-carbonyl]-7-oxa-2,5-diazaspiro[3.4]octan-6-one], which IC50 is on record?
The IC50 was 0.94 nM.

For O=C1COCC2(CN(C(=O)N3CC4(C3)CN(S(=O)(=O)c3cccc(OC(F)(F)F)c3)C4)C2)N1 [Example 86, 2-[2-[3-(trifluoromethoxy)phenyl]sulfony1-2,6-diazaspiro[3.3]heptane-6-carbonyl]-8-oxa-2,5-diazaspiro[3.5]nonan-6-one], which IC50 is on record?
The IC50 was 984 nM.

For O=C1COCC2(CN(C(=O)N3CC4(CCC(Cc5ccc(C(F)(F)F)cn5)CC4)C3)C2)N1 [Example 87, 2-[7-[[5-(trifluoromethyl)-2-pyridyl]methyl]-2-azaspiro[3.5]nonane-2-carbonyl]-8-oxa-2,5-diazaspiro[3.5]nonan-6-one], which IC50 is on record?
Its IC50 is 6.42 nM.

How did the IC50 turn out when O=C1COCC2(CN(C(=O)N3CC4(CCC(OCC5(C(F)(F)F)CC5)CC4)C3)C2)N1 [Example 88, 2-[7-[[1-(trifluoromethyl)cyclopro-pyl]methoxy]-2-azaspiro[3.5]nonane-2-carbonyl]-8-oxa-2,5-diazaspiro[3.5]nonan-6-one] was run?
Its IC50 is 13.5 nM.

How did the IC50 turn out when O=C1COCC2(CN(C(=O)N3CC4(CC(CNC5(C(F)(F)F)CC5)C4)C3)C2)N1 [Example 89, 2-[6-[[[1-(trifluoromethyl)cyclopro-pyl]amino]methyl]-2-azaspiro[3.3]heptane-2-carbonyl]-8-oxa-2,5-diazaspiro[3.5]nonan-6-one] was run?
The IC50 was 29.7 nM.

O=C1CCC2(CN(C(=O)N3CCC4(CC3)CN(Cc3ccc(C(F)(F)F)cc3F)C4)C2)N1 [Example 90, 2-[2-[2-fluoro-4-(trifluoromethyl)benzyl]-2,7-diazaspiro[3.5]nonane-7-carbonyl]-2,5-diazaspiro[3.4]octan-6-one] was tested. Which IC50 did it give?
Its IC50 is 19.1 nM.

How did the IC50 turn out when O=C1NC2(CCO1)CN(C(=O)N1CCC3(CC1)CN(Cc1ccc(C(F)(F)F)cc1F)C3)C2 [Example 91, 2-[2-[2-fluoro-4-(trifluoromethyl)benzyl]-2,7-diazaspiro[3.5]nonane-7-carbonyl]-7-oxa-2,5-diazaspiro[3.5]nonan-6-one] was run?
The IC50 was 635 nM.

For O=C1NC2(CO1)CN(C(=O)N1CCC3(CC1)CN(Cc1ccc(C(F)(F)F)cc1F)C3)C2 [Example 92, 2-[2-[2-fluoro-4-(trifluoromethyl)benzyl]-2,7-diazaspiro[3.5]nonane-7-carbonyl]-7-oxa-2,5-diazaspiro[3.4]octan-6-one], which IC50 is on record?
Its IC50 is 0.65 nM.

Which IC50 does the source give for O=C1NCC2(CN(C(=O)N3CCC4(CC3)CN(Cc3ccc(C(F)(F)F)cc3F)C4)C2)N1 [Example 93, 2-[2-[2-fluoro-4-(trifluoromethyl)benzyl]-2,7-diazaspiro[3.5]nonane-7-carbonyl]-2,5,7-triazaspiro[3.4]octan-6-one] here?
Its IC50 is 142 nM.

With O=C1NC2(CO1)CN(C(=O)N1CC3(CC(NCc4ccc(C(F)(F)F)cc4F)C3)C1)C2 [Example 94] as the compound, how does the IC50 read?
The IC50 was 1.08 nM.

With O=C1NC2(CO1)CN(C(=O)N1CC3(CCC(Nc4ccc(C(F)(F)F)cn4)CC3)C1)C2 [Example 95, 2-[7-[[5-(trifluoromethyl)-2-pyridyl]amino]-2-azaspiro[3.5]nonane-2-carbonyl]-7-oxa-2,5-diazaspiro[3.4]octan-6-one] as the compound, how does the IC50 read?
Its IC50 is 0.37 nM.

With CN(c1cnc(C(F)(F)F)cn1)C1CCC2(CC1)CN(C(=O)N1CC3(COC(=O)N3)C1)C2 [Example 96, 2-[7-[methyl-[5-(trifluoromethyl)pyrazin-2-yl]amino]-2-azaspiro[3.5]nonane-2-carbonyl]-7-oxa-2,5-diazaspiro[3.4]octan-6-one] as the compound, how does the IC50 read?
Its IC50 is 1.88 nM.

O=C1NC2(CO1)CN(C(=O)N1CC3(CCC(Cc4ccc(Cl)cn4)CC3)C1)C2 [Example 97, 2-[7-[(5-chloro-2-pyridyl)methyl]-2-azaspiro[3.5]nonane-2-carbonyl]-7-oxa-2,5-diazaspiro[3.4]octan-6-one] was tested. Which IC50 did it give?
The IC50 was 0.15 nM.

Which IC50 does the source give for O=C1NC2(CO1)CN(C(=O)N1CC3(CCC(Nc4cnc(C(F)(F)F)cn4)CC3)C1)C2 [Example 98, 2-[7-[[5-(trifluoromethyl)pyrazin-2-yl]amino]-2-azaspiro[3.5]nonane-2-carbonyl]-7-oxa-2,5-diazaspiro[3.4]octan-6-one] here?
The IC50 was 1.75 nM.

How did the IC50 turn out when CS(=O)(=O)c1cc(F)ccc1OC1CCC2(CC1)CN(C(=O)N1CC3(COC(=O)N3)C1)C2 [Example 99, 2-[7-(4-fluoro-2-mesyl-phenoxy)-2-azaspiro[3.5]nonane-2-carbonyl]-7-oxa-2,5-diazaspiro[3.4]octan-6-one] was run?
Its IC50 is 3.09 nM.

Which IC50 does the source give for O=C1NC2(CO1)CN(C(=O)N1CC3(CCC(Cc4ccc(C(F)(F)F)nc4)CC3)C1)C2 [Example 101, 2-[7-[[6-(trifluoromethyl)-3-pyridyl]methyl]-2-azaspiro[3.5]nonane-2-carbonyl]-7-oxa-2,5-diazaspiro[3.4]octan-6-one] here?
Its IC50 is 0.18 nM.

For O=C1CCC2(CN(C(=O)N3CC4(CCC(Cc5cnc(C(F)(F)F)cn5)CC4)C3)C2)N1 [Example 102, 2-[7-[[5-(trifluoromethyl)pyrazin-2-yl]methyl]-2-azaspiro[3.5]nonane-2-carbonyl]-2,5-diazaspiro[3.4]octan-6-one], which IC50 is on record?
Its IC50 is 10.8 nM.

For O=C1NC2(CO1)CN(C(=O)N1CC3(CCC(Cc4ncc(F)cc4F)C3)C1)C2 (stereo not shown) [Example 103, 2-[6-[(3,5-difluoro-2-pyridyl)methyl]-2-azaspiro[3.4]octane-2-carbonyl]-7-oxa-2,5-diazaspiro[3.4]octan-6-one], which IC50 is on record?
Its IC50 is 0.28 nM.

With O=C1NC2(CO1)CN(C(=O)N1CC3(CCC(Cc4ccc(OC(F)F)nc4)CC3)C1)C2 [Example 105, 2-[7-[[6-(difluoromethoxy)-3-pyridyl]methyl]-2-azaspiro[3.5]nonane-2-carbonyl]-7-oxa-2,5-diazaspiro[3.4]octan-6-one] as the compound, how does the IC50 read?
The IC50 was 0.05 nM.

With O=C1NC2(CO1)CN(C(=O)N1CC3(CCC(Oc4cc(Cl)ccc4Cl)CC3)C1)C2 [Example 106, 2-[7-(2,5-dichlorophenoxy)-2-azaspiro[3.5]nonane-2-carbonyl]-7-oxa-2,5-diazaspiro[3.4]octan-6-one] as the compound, how does the IC50 read?
Its IC50 is 0.05 nM.

With O=C1NC2(CO1)CN(C(=O)N1CC3(CC(c4ccc(C(F)(F)F)cc4F)C3)C1)C2 [Example 107] as the compound, how does the IC50 read?
The IC50 was 0.08 nM.

With O=C1NC2(CO1)CN(C(=O)N1CC3(CCC(Cc4ncc(F)cc4F)CC3)C1)C2 [Example 108, 2-[7-[(3,5-difluoro-2-pyridyl)methyl]-2-azaspiro[3.5]nonane-2-carbonyl]-7-oxa-2,5-diazaspiro[3.4]octan-6-one] as the compound, how does the IC50 read?
Its IC50 is 0.18 nM.

For CS(=O)(=O)c1ccc(CC2CCC3(C2)CN(C(=O)N2CC4(COC(=O)N4)C2)C3)cc1C(F)(F)F (stereo not shown) [Example 109, 2-[6-[4-mesyl-3-(trifluoromethyl)benzyl]-2-azaspiro[3.4]octane-2-carbonyl]-7-oxa-2,5-diazaspiro[3.4]octan-6-one], which IC50 is on record?
Its IC50 is 0.21 nM.
